Data from patent US12012390B2, “Flavone compounds for the treatment and prophylaxis of hepatitis B virus disease” (priority 2018, dated 2024).

System: cccDNA in HepDES19 cells
Experiment: cccDNA Southern Blot assay
Assay type: cell-based, HBV
Conditions: 5 days' compound treatment, FIG. 1
Method: HepDES19 cells were seeded at 4×10^6 cells per T150 in the culture medium (Dulbecco's Modified Eagle Medium: Nutrient Mixture F-12 [DMEM-F12, Gibco Cat. 11320-82], 10% Fetal Bovine Serum [FBS, Clontech Cat. 631101], 0.1 mM Non-Essential Amino Acids Solution [NEAA, Gibco Cat. 11140-050], 50 μg/mL Penicillin-Streptomycin [PS, Invitrogen Cat. 15140-163], 500 μg/mL Geneticin [G418, Invitrogen Cat. 10131-027]) in the absence of Tet for 8 days. These cells were seeded at the density of 1×10^6 cells per well in 6-well plate. At 24 hrs after seeding, serial dilutions of compounds made with DMSO (Sigma, Cat. D2650) were further diluted with the same culture medium as described above before they were added to the cells to reach desired final compound concentrations and 1% DMSO concentration. After 5 days' compound treatment, the cells growing in one well from 6-well plate were re-suspended with 500 μL re-suspension buffer (50 mM tris[hydroxymethyl]amino methane pH 7.5), 10 mM ethylenediaminetetraacetic acid (EDTA), 50 μg/mL RNase A [Qiagen, Cat. 158922]. 500 μL of 1.2% sodium dodecyl sulfate (SDS) was then added into the re-suspended cells to lyse the cells. After 15 minutes' incubation, 700 μL precipitation buffer (3M cesium chloride, 1M potassium acetate, 0.67M acetic acid) was added and the lysate was incubated at 4° C. for 2 h. […]

## O=C(O)C1CC(OCCOc2ccc(-c3cc(=O)c4cccc(Cl)c4o3)cc2)C1 (stereo not shown) [Example 1, 3-[2-[4-(8-chloro-4-oxo-chromen-2-yl)phenoxy]ethoxy]cyclobutanecarboxylic acid]
  cccDNA level in cccDNA Southern Blot assay: dose-dependently reduced cccDNA level
